Results on eleven molecules are retold here after patent publication US7935722B2 (Eli Lilly and Company, priority 2005, dated 2011).

“And” between values parts separate entries of the source, which are not always exact repeats. Equal values may be shown once. Read-outs that look alike come from different tables or passages of the source.

Data set [1] deals with T1, human AR (androgen receptor) (Homo sapiens, UniProt P10275).
T1 construct: expressed in transfected cells; host or cells: 293 cells (293-AR lysate)
T1 sequence (P10275 1-920): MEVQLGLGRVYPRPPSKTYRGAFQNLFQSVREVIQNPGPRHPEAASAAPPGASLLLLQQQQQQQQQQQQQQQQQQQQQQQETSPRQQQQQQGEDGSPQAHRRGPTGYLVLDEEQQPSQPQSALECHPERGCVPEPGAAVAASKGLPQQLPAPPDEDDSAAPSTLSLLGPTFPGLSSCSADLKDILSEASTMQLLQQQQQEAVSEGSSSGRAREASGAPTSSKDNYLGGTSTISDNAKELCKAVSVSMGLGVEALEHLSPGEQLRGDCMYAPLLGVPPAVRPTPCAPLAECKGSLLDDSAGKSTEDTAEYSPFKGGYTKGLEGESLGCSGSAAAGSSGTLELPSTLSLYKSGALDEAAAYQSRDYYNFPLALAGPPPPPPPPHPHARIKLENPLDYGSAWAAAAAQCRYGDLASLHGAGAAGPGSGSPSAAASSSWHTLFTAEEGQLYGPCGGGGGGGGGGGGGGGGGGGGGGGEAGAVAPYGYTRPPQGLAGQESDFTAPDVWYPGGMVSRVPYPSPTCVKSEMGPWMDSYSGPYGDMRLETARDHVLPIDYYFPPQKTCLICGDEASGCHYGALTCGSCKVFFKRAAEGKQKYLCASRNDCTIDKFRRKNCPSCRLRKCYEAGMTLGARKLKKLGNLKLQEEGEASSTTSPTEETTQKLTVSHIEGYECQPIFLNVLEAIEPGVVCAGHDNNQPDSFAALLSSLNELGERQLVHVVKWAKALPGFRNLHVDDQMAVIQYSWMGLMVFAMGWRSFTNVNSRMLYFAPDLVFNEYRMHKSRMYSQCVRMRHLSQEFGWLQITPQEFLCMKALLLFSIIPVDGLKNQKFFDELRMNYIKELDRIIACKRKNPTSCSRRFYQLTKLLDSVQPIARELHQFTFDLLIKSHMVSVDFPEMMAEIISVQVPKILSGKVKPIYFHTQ
The experiment in a line: Steroid hormone nuclear receptor binding assay, AR binding. An outline of the steps:
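Competition binding with lysates of 293 cells overexpressing human AR, [3H]-methyltrienolone tracer, compounds from about 0.01 nM to 10 μM, overnight at 4 °C; non-specific binding set with 500 nM methyltrienolone. Bound tracer counted by scintillation after charcoal-dextran separation; IC50 converted to Ki by Cheng-Prusoff using Kd from saturation binding.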

For data set [2], the target named is T2, human androgen receptor (AR) (Homo sapiens, UniProt P10275).
T2 construct: expressed in transfected cells; host or cells: mouse myoblast C2C12 cells, transiently co-transfected
T2 sequence (P10275 1-920): T1 sequence (P10275 1-920)
In words: C2C12 AR/ARE reporter assay. It is filed as cell-based. The method, boiled down:
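Mouse C2C12 myoblasts co-transfected with AR/ARE reporter were plated in charcoal-stripped serum and treated for 48 h with compound from about 0.01 nM to 10 μM. Luciferase activity gave EC50 by 4-parameter logistic fit. Efficacy is expressed as % of maximal stimulation by 10 nM methyltrienolone.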

Setting [3] is: C2C12, read-out: C2C12 % Efficacy.

As usually defined, the Ki is the dissociation constant of the complex between target and ligand, obtained from inhibition or displacement. Usually melting point stands for the temperature, or range, at which the solid turns liquid. Broadly, the EC50 is the midpoint of the concentration-response curve.

Turning to `COC(=O)Nc1ccc2c(c1)c1c(n2Cc2cccc(F)c2)CC[C@@H](NC(=O)C(C)C)C1` [Example 190, (R)-[9-(3-Fluorobenzyl)-6-isobutyrylamino-6,7,8,9-tetrahydro-5H-carbazol-3-yl]-carbamic acid methyl ester], the melting point was in the range of 111 to 115 °C. Besides, the affinity in data set [1], expressed as Ki, was 6.7 nM. For the same molecule, a half-maximal response in data set [2] (EC50) required 2.2 nM. Further, the Emax in data set [2] (setting [3]) stood at 86%.

Turning to `CC(C)C(=O)N[C@@H]1CCc2c(c3cc(-c4ccno4)ccc3n2Cc2cccc(F)c2)C1` [Example 192, (R)-N-[9-(3-Fluoro-benzyl)-6-isoxazol-5-yl-2,3,4,9-tetrahydro-1H-carbazol-3-yl]-isobutyramide], the melting point was 238 to 241 °C. Also, the inhibition constant Ki in data set [1] stood at 2.6 nM. In data set [2], this molecule registered a half-maximal effective concentration (EC50) of 7.7 nM. Also, the Emax in data set [2] (setting [3]) was found to be 66.5%.

On to `N#Cc1ccc2c(c1)c1c(n2Cc2cccc(F)c2)CCC(NC(=O)C2CC2)C1` (centres unmarked) [Example 193, Cyclopropanecarboxylic acid[6-cyano-9-(3-fluorobenzyl)-2,3,4,9-tetrahydro-1H-carbazol-3-yl]amide], for which the melting point is 208 to 210 °C and 207 to 209 °C. Also, in data set [1], the affinity, expressed as Ki, was 4.3 nM. For the same molecule, the midpoint of the response in data set [2], the EC50, lay at 7.9 nM. Moreover, the Emax in data set [2] (setting [3]) is 92.7%.

In the case of `N#Cc1ccc2c(c1)c1c(n2Cc2cccc(F)n2)CC[C@@H](NC(=O)C2CC2)C1` [Example 195, Cyclopropanecarboxylic acid[6-cyano-9-(6-fluoro-pyridin-2-ylmethyl)-2,3,4,9-tetrahydro-1H-carbazol-3-yl]-amide], the melting point lay within 243 to 245 °C. This molecule also returned an inhibition constant Ki in data set [1] of 4.3 nM. In data set [2], this molecule returned a concentration for a half-maximal effect (EC50) of 2.7 nM. Further, the Emax in data set [2] (setting [3]) turned out to be 96.5%.

`N#Cc1ccc2c(c1)c1c(n2Cc2ccccn2)CC[C@@H](NC(=O)C2CC2)C1` [Example 196, Cyclopropanecarboxylic acid[6-cyano-9-(pyridin-2-ylmethyl)-2,3,4,9-tetrahydro-1H-carbazol-3-yl]-amide] gave a melting point of 239 to 241 °C. The molecule further showed an inhibitory constant (Ki) in data set [1] of 16.1 nM. It took 15.3 nM to reach a half-maximal effect in data set [2] (EC50). In addition, in data set [2] (setting [3]), the Emax came to 95.2%.

`CO/N=C/c1ccc2c(c1)c1c(n2Cc2cccc(F)c2)CCC(NC(=O)C(C)C)C1` (centres unmarked) [Example 199, N-[9-(3-Fluoro-benzyl)-6-(methoxyimino-methyl)-2,3,4,9-tetrahydro-1H-carbazol-3-yl]-isobutyramide]: the melting point was 180 to 182 °C. Further, in data set [1] (average of n trials, read-out: AR binding Ki), the Ki is 6.6 nM. The Emax in data set [2] (C2C12 AR/ARE reporter assay, average of n trials, read-out: C2C12 % Efficacy) was 83.6%. In addition, the 50% effective concentration (EC50) in data set [2] (C2C12 AR/ARE reporter assay, average of n trials, read-out: C2C12 EC50) was found to be 1.8 nM.

For `Cc1cc(-c2ccc3c(c2)c2c(n3Cc3cccc(F)c3)CC[C@@H](NC(=O)C3CC3)C2)no1` [Example 204, (R)-Cyclopropanecarboxylic acid[9-(3-fluoro-benzyl)-6-(5-methyl-isoxazol-3-yl)-2,3,4,9-tetrahydro-1H-carbazol-3-yl]-amide], the melting point is 190 to 192 °C. In data set [1], this molecule had a Ki of 6.8 nM. In data set [2], a half-maximal response (EC50) required 2.7 nM. Moreover, the Emax in data set [2] (setting [3]) came to 90.8%.

`CO/N=C/c1ccc2c(c1)c1c(n2Cc2cccc(F)c2)CC[C@@H](NC(=O)C2CC2)C1` [Example 205, (R)-Cyclopropanecarboxylic acid[9-(3-fluoro-benzyl)-6-(1-methoxyimino-methyl)-2,3,4,9-tetrahydro-1H-carbazol-3-yl]-amide] had a melting point of 200 to 203 °C. Besides, the inhibitory constant (Ki) in data set [1] is 3 nM. For the same molecule, in data set [2], the concentration for a half-maximal effect (EC50) was 0.5 nM. For the same molecule, the Emax in data set [2] (setting [3]) was 88.4%.

`CO/N=C/c1ccc2c(c1)c1c(n2Cc2ccccn2)CCC(NC(=O)C2CC2)C1` (centres unmarked) [Example 207, Cyclopropanecarboxylic acid[6-(1-methoxyimino-methyl)-9-pyridin-2-ylmethyl-2,3,4,9-tetrahydro-1H-carbazol-3-yl]-amide] showed a melting point of 88 to 92 °C. Further, in data set [1], the affinity, expressed as Ki, was 41.6 nM. Besides, in data set [2], the EC50 stood at 11.6 nM. Also, in data set [2] (setting [3]), the Emax is 93.3%.

Molecule `CO/N=C/c1ccc2c(c1)c1c(n2Cc2ccccn2)CC[C@@H](NC(=O)C2CC2)C1` [Example 208, (R)-Cyclopropanecarboxylic acid[6-(1-methoxyimino-methyl)-9-pyridin-2-ylmethyl-2,3,4,9-tetrahydro-1H-carbazol-3-yl]-amide] came in with a melting point of 215 to 217 °C. In data set [1], this molecule gave a Ki of 21.1 nM. Moreover, the EC50 in data set [2] amounted to 3.8 nM. Moreover, the Emax in data set [2] (setting [3]) was 96.3%.

Molecule `CO/N=C/c1ccc2c(c1)c1c(n2Cc2cccc(F)n2)CC[C@@H](NC(=O)C2CC2)C1` [Example 209] had a melting point of 223 to 225 °C. Further, the Ki in data set [1] stood at 7.8 nM. The EC50 in data set [2] was found to be 1.1 nM. Besides, the Emax in data set [2] (setting [3]) came out at 95.7%.
